For data set [1] the following is noted: cosmetic remover solution with parabens; cited from earlier work.
Data set [2] is described as follows: use of the metabisulfite solution directly on human and animal patients (tolerability). In kind it is in vivo. As to conditions: 0.020 to 0.035 percent by weight in water, on skin. From the text: Additionally, the same solution is effective for removing stains elsewhere. The solutions of the present embodiments may be packaged for liquid application, such as in bottles, or sprays, or swabs.

The nature of data set [3]: Iodine stain removal, trial and error testing / actual usage.
Description: In use, the desired level of concentration may be intentionally varied to correspond to anticipated situations. For instance, products that are directed towards general cleanup, such as flooring, or equipment, or linens, may be made at the higher ranges so as to ensure quick and complete neutralization of the Iodine. The higher concentrations serve also to overcome any associated soil or other materials that may impede the action of the sodium metabisulfite on the Iodine stains.

For the compound `O=S([O-])S(=O)(=O)[O-].[Na+].[Na+]` [sodium metabisulfite], the “irritation or other adverse reactions in and about the eyes of users” value in data set [1] was “did not contribute to any irritation or other adverse reactions”. Moreover, in data set [2], the “deleterious effects or irritation to the patient” value is recorded as “does not show any deleterious effects or irritation”. Further, the “effectiveness in eliminating Iodine staining” value in data set [3] (0.020 to 0.035 percent by weight in water) is reported as “highly effective”.
`O=S([O-])([O-])=S.[Na+].[Na+]` [sodium thiosulfate, reference compound]: the “effectiveness of Iodine stain removal compared to modest aqueous solutions of sodium metabisulfite” value in data set [3] (sodium thiosulfate in an alkaline detergent type matrix, actual usage) is “weak”.
